The text below walks through data of ChEMBL document CHEMBL5335785, “Structure-based virtual screening discovers potent and selective adenosine A1 receptor antagonists” (Eur J Med Chem, 2023).

Experiment [1] addresses T1, Adenosine receptor A1 (Homo sapiens) (UniProt P30542).
T1 sequence (whole entry): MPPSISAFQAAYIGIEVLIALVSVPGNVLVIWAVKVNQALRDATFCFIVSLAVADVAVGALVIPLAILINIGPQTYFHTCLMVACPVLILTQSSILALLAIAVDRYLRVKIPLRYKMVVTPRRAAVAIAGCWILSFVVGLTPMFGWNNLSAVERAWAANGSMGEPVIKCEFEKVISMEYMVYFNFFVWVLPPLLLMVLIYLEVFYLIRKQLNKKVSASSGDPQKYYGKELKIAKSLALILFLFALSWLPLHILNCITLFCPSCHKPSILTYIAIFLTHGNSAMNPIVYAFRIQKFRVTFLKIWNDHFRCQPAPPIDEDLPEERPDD
The following applies: Flp-In-CHO, time 60-90 min.

Experiment [2] addresses T2, Adenosine receptor A2a (Homo sapiens, UniProt P29274). The conditions noted are these: Flp-In-CHO, time 60-90 min.
The target of experiment [3] is T3, Adenosine receptor A1 (Homo sapiens, UniProt P30542).
T3 sequence (P30542 whole entry): T1 sequence (whole entry)
Briefly: Antagonist activity at human A1R expressed in Flp-In-CHO cells assessed as NECA-mediated reduction in forskolin-stimulated cAMP accumulation incubated for 30 to 60 mins followed by forskolin/NECA addition measured after 30 mins by LANCE cAMP assay (reference value: 8.74 +/- 0.08). Type of experiment: functional, cell-based. On the technique in general: cAMP levels reflect the balance of adenylyl cyclase and phosphodiesterase activity.

In experiment [4] the target is T2, Adenosine receptor A2a. Kind of experiment: Antagonist activity at human A2AR expressed in Flp-In-CHO cells assessed as NECA-mediated cAMP accumulation incubated for 30 to 60 mins followed by NECA addition measured after 30 mins by LANCE cAMP assay (reference value: 8.38 +/- 0.03). The class given is functional, cell-based.
For experiment [5], the target named is T3, Adenosine receptor A1. Kind of experiment: Displacement of [3H]DPCPX from human A1R expressed in Flp-In-CHO cells incubated for 12 hrs by microbeta plate counter analysis. The class given is cell-based. (In general: Displacement assays read how much labelled ligand stays bound in the presence of the test substance.)

Structures are written as SMILES.

T2 sequence (P29274 whole entry): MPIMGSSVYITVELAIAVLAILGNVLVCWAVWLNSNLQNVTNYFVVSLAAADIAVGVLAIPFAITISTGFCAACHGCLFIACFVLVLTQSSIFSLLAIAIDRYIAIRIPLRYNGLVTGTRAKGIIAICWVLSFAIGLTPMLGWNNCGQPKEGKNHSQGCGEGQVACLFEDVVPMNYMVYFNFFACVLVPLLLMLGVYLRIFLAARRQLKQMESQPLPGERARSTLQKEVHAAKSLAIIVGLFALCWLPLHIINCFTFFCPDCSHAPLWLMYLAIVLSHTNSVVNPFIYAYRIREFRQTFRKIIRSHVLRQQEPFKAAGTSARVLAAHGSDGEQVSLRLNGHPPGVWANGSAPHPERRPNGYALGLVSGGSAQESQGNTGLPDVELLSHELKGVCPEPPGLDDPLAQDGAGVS

What is called pKb is the Kb on a negative log10 scale, so that one unit is a factor of ten. A high value points to a low Kb. Consider `O=C(Nc1nc2c(s1)Cc1ccccc1-2)c1ncn2cc(Cl)ccc12`, for which the pKb in experiment [1] was less than 5.5. Consider `c1csc(-c2nc(NC3CCCCCC3)ncc2-c2ccncc2)c1`, for which the pKb in experiment [1] (filed as antagonist) came to 8.1; on Adenosine receptor A2a [2] (filed as antagonist), 6.79. As for `Cc1cccc(C(=O)Nc2nc3c(s2)Cc2ccccc2-3)c1C`, the pKb in experiment [1] (filed as antagonist) was 6.67; at Adenosine receptor A2a [2] it was less than 5.5. Usually EC50 stands for the concentration needed to bring the measured effect to its halfway point. For `c1ccc(CNc2nc(N3CCCCC3)c3nccnc3n2)nc1`, the EC50 at Adenosine receptor A1 [3] is 2.51 nM. As for `CC1(CNc2ncc(-c3ccncc3)c(-c3cccs3)n2)COC1`, the pKb (in experiment [1]; at Adenosine receptor A2a [2]) was less than 5.5 in each case. `O=C(CC1CCCC1)N1CCc2c(nc(N3CCCC3)[nH]c2=O)C1`: the EC50 at Adenosine receptor A2a [4] is 4.47 nM.

On to `Cc1c(C(=O)Nc2nc3c(s2)Cc2ccccc2-3)ccc2cncn12`, for which the pKb (in experiment [1]; on Adenosine receptor A2a [2]) was less than 5.5 each time. On to `CC(=O)NC(CC(=O)Nc1nc(C(C)=O)cs1)c1ccc(C)cc1` (stereo unspecified), for which the EC50 on Adenosine receptor A1 [3] is 2.57 nM. Molecule `Cc1coc(C(=O)Nc2nc3c(s2)Cc2ccccc2-3)c1C` displayed a pKb in experiment [1] of less than 5.5. With `CC1(C(=O)Nc2nc3c(s2)Cc2ccccc2-3)CCC(=O)CC1`, the pKb in experiment [1] (filed as antagonist) came out at 7.85; at Adenosine receptor A2a [2] (filed as antagonist), 7.25.

For the molecule `Cc1ccc2nc(C(=O)Nc3cnc4n3CCCC4)cn2c1`, the EC50 on Adenosine receptor A2a [4] was 4.57 nM.

In the case of `COc1ccc(C(=O)Nc2nc(C)c3cc4c(cc3n2)OCO4)cc1`, the EC50 at Adenosine receptor A1 [3] was 1.91 nM. For `CCC1CCC(C(=O)Nc2nc3c(s2)Cc2ccccc2-3)CC1` (stereo unspecified), the pKb (in experiment [1]; at Adenosine receptor A2a [2]) was less than 5.5 each time.

`C=C1CCC(C(=O)Nc2nc3c(s2)Cc2ccccc2-3)CC1`: the negative logarithm of the Kb (pKb) in experiment [1] (filed as antagonist) is 7.7; at Adenosine receptor A2a [2] (filed as antagonist), 7.03. As to `CC1(C(=O)Nc2nc3c(s2)Cc2ccccc2-3)CCCC1`, the results for the pKb (in experiment [1] (filed as antagonist); at Adenosine receptor A2a [2] (filed as antagonist)) were 7.86 and 7.4, respectively. As to `CCOc1nc(NC(CO)c2ccco2)ncc1Br` (stereo unspecified), at Adenosine receptor A1 [5] (read-out: pKi (converted)), the Ki is 2450 nM. Moreover, the EC50 on Adenosine receptor A1 [3] was 14.8 nM. As to `COC1(OC)CC(C)(C(=O)Nc2nc3c(s2)Cc2ccccc2-3)C1`, the pKb in experiment [1] (filed as antagonist) was found to be 6.7; on Adenosine receptor A2a [2] (filed as antagonist), 7.25.

As for `CC(C)(CNc1ncc(-c2ccncc2)c(-c2cccs2)n1)C1CCC1`, the pKb was 7.15 in experiment [1] (filed as antagonist) and 6.09 at Adenosine receptor A2a [2] (filed as antagonist). `CC(=O)N1CCC(Nc2ncc(-c3ccncc3)c(-c3cccs3)n2)CC1`: the pKb in experiment [1] (filed as antagonist) is 7.82; at Adenosine receptor A2a [2] (filed as antagonist) it was 6.57. `c1csc(-c2nc(NC3CCC4(CC3)OCCO4)ncc2-c2ccncc2)c1`: the pKb in experiment [1] (filed as antagonist) came out at 7.07; at Adenosine receptor A2a [2] (filed as antagonist), 6.53. Take `O=C(Nc1noc(-c2ccccc2)n1)c1cccc(Cl)c1`: the EC50 at Adenosine receptor A2a [4] was 10.5 nM; on Adenosine receptor A1 [3], 2.82 nM. Consider `CC(C)N1CC(C(=O)Nc2nc3ccccc3[nH]2)CC1=O` (stereo unspecified), for which the EC50 at Adenosine receptor A2a [4] was 20.4 nM. With `O=C(Nc1nc2ccccc2s1)N(CCO)C1CC1`, the EC50 on Adenosine receptor A2a [4] is 6.03 nM; on Adenosine receptor A1 [3] it was 3.63 nM. Regarding `O=C(Nc1nc2c(s1)Cc1ccccc1-2)C1CCCCCC1`, the pKb worked out at 7.29 in experiment [1] (filed as antagonist) and 6.87 at Adenosine receptor A2a [2] (filed as antagonist). With `COCC(O)CNc1ncc(C)c(-c2ncnn2C)n1` (stereo unspecified), the figures for the EC50 at Adenosine receptor A2a [4] and at Adenosine receptor A1 [3] were 4.57 nM and 2.34 nM, respectively. In the case of `Cn1c(=O)c2[nH]c(N(CCO)CCO)nc2n(C)c1=O`, the EC50 is 6.92 nM at Adenosine receptor A2a [4] and 17 nM at Adenosine receptor A1 [3]. Moreover, the Ki on Adenosine receptor A1 [5] (read-out: pKi (converted)) was 2820 nM. As to `O=C(Nc1nc(C2CC2)cs1)C1COc2ccccc2C1` (stereo unspecified), the EC50 at Adenosine receptor A1 [3] is 3.24 nM. Regarding `Cc1nnsc1C(=O)Nc1nc2c(s1)Cc1ccccc1-2`, the EC50 on Adenosine receptor A2a [4] is 63.1 nM. Regarding `O=C(Nc1nc2c(s1)Cc1ccccc1-2)C12CC3CC(CC1C3)C2`, the values for the pKb (in experiment [1] (filed as antagonist); at Adenosine receptor A2a [2] (filed as antagonist)) were 7.57 and 6.3, respectively. At Adenosine receptor A1 [5] (read-out: Ki), the Ki was determined as 72 nM. Take `CC(Sc1nnc(C(C)C)[nH]1)C(=O)c1ccccc1` (stereo unspecified): at Adenosine receptor A1 [3], the EC50 is 3.31 nM. `O=C(Nc1nc2c(s1)Cc1ccccc1-2)C1CCCCC1`: the pKb came to 7.24 in experiment [1] (filed as antagonist) and 7 at Adenosine receptor A2a [2] (filed as antagonist). For `Cc1cccnc1C(=O)Nc1nc2c(s1)Cc1ccccc1-2`, the pKb in experiment [1] was less than 5.5. Take `CC1(CNc2ncc(-c3ccncc3)c(-c3cccs3)n2)OCCO1`: the pKb is 6.38 in experiment [1] (filed as antagonist) and less than 5.5 at Adenosine receptor A2a [2].
